Entries after “also recorded” stand apart in the source; their conditions may differ.
Key:
STING pathway = assay: IFN-β mRNA production in RAW 264.7 cells by RT-qPCR; assay type: cell-based, murine; conditions: for IFN-β mRNA production / IFN response: RAW 264.7, 1, 5, 10 μM CDN, 2, 4, 6 h; for order of IFN-β induction: RAW 264.7, RT-qPCR, FIG. 3; for time post transfection of highest IFN-β mRNA production: RAW 264.7, 1, 5 and 10 μM CDN, 2, 4 and 6 h tested
Protocol: FIGS. 3A-3C provide IFN data. […] RAW 264.7 cells were transfected with 1, 5, 10 μM of c-di-GMP, c-di-^tzGMP, c-G^thGMP, c-di-G^thGMP and c-G^tzGMP, and incubated for 2, 4, 6 h before being lysed by TRIzol. RNA purification and RT-qPCR were conducted following the protocol described in the Experimental Section. FIG. 3B show IFN response after 2, 4, 6 h of incubation with 5 μM of CDNs. […] Two independent assays were performed in triplicates (n=2). Error bars indicate SD. See Yi et al, Tuning the Innante Immune Response to Cyclic Dinucleotides by Using Atomic Mutagenesis, ChemBioChem, Volume 21 (2020).
As most synthetic c-di-GMP analogues activated IRF3, the inventors analyzed their dose and time dependency for inducing IFN-β mRNA production by using RT-qPCR. RAW 264.7 cells were transfected with 1, 5 and 10 μM of CDNs as described above and incubated for 2, 4 and 6 h. Total RNA was isolated and used for RT-qPCR. As shown in FIGS. 3A-3B, c-di-GMP induced the most IFN-β mRNA production 4 h post transfection, whereas the highest response was observed after 2 h for c-di-tzGMP, c-GthGMP, and c-GtzGMP.
RT-qPCR. RAW 264.7 cells were plated on 48-well plates (2.5×10^5 cells per well) and transfected with CDN using the same method as above after 48 h of incubation at 37° C. Cells were then incubate with regular growth medium for designated time, and total RNA was isolated with TRIzol® reagent and purified with RNeasy mini kit (Qiagen) following the manufacturer's protocol. Following elution, RNA yields were evaluated using a Nanodrop spectrophotometer (Nanodrop technologies). RNA samples were converted to cDNA with SuperScript III First-Strand Synthesis kit (Invitrogen) with random hexamers following the manufacturer's protocol. Quantitative PCR (SYBR Green) analysis was performed in duplicates on an Applied Biosystems 7300 Real-time PCR system (Invitrogen). Transcription level of IFN-β gene of each sample was normalized to housekeeping gene TBP and then to untreated samples (UT) using the delta-delta CT method.

rocR = molecular target: T1, rocR (Pseudomonas aeruginosa, UniProt Q9HX69); assay: rocR-mediated CDN hydrolysis monitored by HPLC; assay type: biochemical, P. aeruginosa; conditions: for order of gradually reduced rocR hydrolysis rate: FIG. 10F; for k2 (cleavage reaction) / time to complete cleavage by rocR / k2 / k3 / k1: 100 nM rocR, 37° C.; for k2 / k3: Table 3; for k1: enzyme/substrate association
T1 construct: made in house; host or cells: Escherichia coli BL21(DE3)
T1 sequence (Q9HX69 whole entry): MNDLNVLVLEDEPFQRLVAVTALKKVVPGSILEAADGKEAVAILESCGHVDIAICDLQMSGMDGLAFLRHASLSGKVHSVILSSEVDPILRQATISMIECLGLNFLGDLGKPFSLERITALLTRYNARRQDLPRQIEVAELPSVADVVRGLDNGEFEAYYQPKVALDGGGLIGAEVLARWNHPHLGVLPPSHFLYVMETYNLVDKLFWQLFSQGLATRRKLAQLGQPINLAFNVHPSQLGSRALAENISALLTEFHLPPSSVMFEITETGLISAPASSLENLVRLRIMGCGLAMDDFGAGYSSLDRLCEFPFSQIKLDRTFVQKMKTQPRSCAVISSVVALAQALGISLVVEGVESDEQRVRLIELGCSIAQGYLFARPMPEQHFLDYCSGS
Description: [1a,27] rocR is a PDE that contains an EAL domain and specifically recognizes and cleaves c-di-GMP into the linear dinucleotide pGpG. […] [28a,29]
RocR is reported to follow Michaelis-Menten kinetics. [27c,28a] Scheme 2a was therefore used to analyze the reaction kinetics, where k1 and k−1 describe the enzyme/substrate association and dissociation, respectively, while k2 reflects the cleavage reaction. Equations (10)-(13) were thus used to extract the rate constants. When “asymmetrical” mixed c-di-GMP analogues are treated with rocR, the enzyme may, in principle, recognize and cleave either phosphodiester bonds, producing pN1pN2 and pN2pN1. Assuming the two products result from different binding orientation of the heterodimeric CDNs, Scheme 2b is therefore introduced to model the cleavage reactions, where k1, k−1 and k2 reflect the association/dissociation and cleavage of the heterodimeric CDN in one orientation, respectively, and k3, k−3 and k4 reflect the other. Equations (14)-(19) were used to extract the rate constants.
Equations(10)-(19) d[S]/dt=−k1[E][S]+k−1[ES] (10) d[E]/dt=−k1[E][S]+k−1[ES]+k2[ES] (11) d[P]/dt=k2[ES] (12) d[ES]/dt=k1[E][S]−k−1[ES]−k2[ES] (13) d[S]/dt=−k1[E][S]+k−1[ES1]−k3[E][S]+k−3[ES2] (14) d[P1]/dt=k2[ES1] (15) d[P2]/dt=k4[ES2] (16) d[E]/dt=−(k1+k3)[E][S]+(k−1+k2)[ES1]+[…][ES2]] (17) d[ES1]/dt=k1[E][S]−k−1[ES1]−k2[ES1] (18) d[ES2]/dt=k3[E][S]−k−3[ES2]−k4[ES2] (19)
CDN hydrolysis with rocR. […] of CDN was incubated with 100 nM of rocR in a buffer containing 100 mM Tris-HCI, pH 8, 20 mM KCI, 25 mM MgCl2 at 37° C. Aliquots of the reaction mixture were taken out at designated time points and quenched with 100 mM CaCl2. All aliquots were filtered before subjected to reverse-phase HPLC analysis. The reaction mixture was separated by Sepax Bio C-18 column (250×10 mm, 5 µm particle size) with a gradient of 0.1-15% of 10 mM NH4OAc, pH7 in Me0H in 12 minutes at 25° C. or 50° C. (only for reactions of c-GtzGMP and c-di-tzGMP) on an Agilent 1200 series HPLC system (Agilent Technologies).
Data Analysis and curve fitting. […] The relative concentrations were plotted against time.

DncV = DncV (Vibrio cholerae serotype O1, UniProt Q9KVG7); conditions: pseudo-second order simulation, FL Model 2
Sequence of DncV (Q9KVG7 whole entry): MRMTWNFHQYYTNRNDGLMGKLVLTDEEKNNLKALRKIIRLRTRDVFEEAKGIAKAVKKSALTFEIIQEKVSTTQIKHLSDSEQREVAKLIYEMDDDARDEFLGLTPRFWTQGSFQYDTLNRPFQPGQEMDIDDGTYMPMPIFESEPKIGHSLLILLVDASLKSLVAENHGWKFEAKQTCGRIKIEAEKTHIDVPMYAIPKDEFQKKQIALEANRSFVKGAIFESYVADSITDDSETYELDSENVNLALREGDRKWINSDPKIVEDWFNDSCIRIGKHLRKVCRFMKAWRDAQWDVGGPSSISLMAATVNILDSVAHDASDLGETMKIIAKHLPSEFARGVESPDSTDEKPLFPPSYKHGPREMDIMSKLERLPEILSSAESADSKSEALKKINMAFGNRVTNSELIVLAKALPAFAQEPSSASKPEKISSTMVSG
Protocol: The bacterial enzyme DncV was thus incubated with either GTP, ^thGTP, ^tzGTP or mixtures thereof under the same conditions as the HPLC-monitored reactions. Aliquots were treated with calf intestinal alkaline phosphatase (CIAP) at designated times, and emission spectra were taken after appropriate dilution.
Unlike integrated chromatographic analyses, which can separately account for all individual species present, the observed fluorescence signal reflects the sum of all emissive species. To facilitate quantitative analyses of fluorescence data, a conversion factor (a) was introduced to the simulation of the fluorescence-monitored reaction kinetics. This factor bridges the integrated fluorescent spectrum and the concentration of a given chromophore at a given set of conditions and can be calculated from the integrated emission spectrum (FLint) of a given chromophore with known concentration ([C]) using Equation (5). […] To compare the fluorescence- and HPLC-monitored reaction kinetics, Equation (6) was used to correlate the recorded fluorescence spectrum with the concentrations of different species in the reaction mixture. As a first attempt, the k values extracted from the HPLC analysis were used to fit the fluorescence data (referred to as FL Model 1). […]

**Q.** `Nc1nc2c([C@@H]3O[C@@H]4COP(=O)(O)O[C@H]5[C@@H](O)[C@H](c6scc7c(=O)[nH]c(N)nc67)O[C@@H]5COP(=O)(O)O[C@H]4[C@H]3O)scc2c(=O)[nH]1` [c-di-^thGMP] was tested. Which “IFN-β mRNA production / IFN response” value (STING pathway) did it give?
**A.** Its value is “minimal; also recorded: essentially inactive”.

**Q.** What about the “order of IFN-β induction” value (STING pathway) of the same molecule?
**A.** Its value is “c-GthGMP>c-di-tzGMP>c-GtzGMP>c-di-GMP>c-di-thGMP”.

**Q.** What about the “order of gradually reduced rocR hydrolysis rate” value (rocR) of the same molecule?
**A.** The value was “c-di-GMP, c-di-^tzGMP, c-G^tzGMP, c-G^thGMP and lastly c-di-^thGMP”.

**Q.** And the “cleavage by rocR” value (rocR; after 40 min of incubation with rocR)?
**A.** The value was “No cleaved c-di-^thGMP was observed; also recorded: did not produce observable amounts of cleaved c-di-^thGMP products”.

**Q.** And the “kapp (apparent kinetics rate constant)” value (DncV)?
**A.** Its value is 0.53 ± 0.05 M⁻¹ s⁻¹.

**Q.** `Nc1nc2c(ncn2[C@@H]2O[C@@H]3COP(=O)(O)O[C@H]4[C@@H](O)[C@H](n5cnc6c(=O)[nH]c(N)nc65)O[C@@H]4COP(=O)(O)O[C@H]3[C@H]2O)c(=O)[nH]1` [c-di-GMP, reference compound] was tested. Which “time post transfection of highest IFN-β mRNA production” value (STING pathway) did it give?
**A.** The value was 4 h.

**Q.** And the “order of IFN-β induction” value (STING pathway)?
**A.** Its value is “c-GthGMP>c-di-tzGMP>c-GtzGMP>c-di-GMP>c-di-thGMP”.

**Q.** What about the “k2 (cleavage reaction)” value (rocR) of the same molecule?
**A.** Its value is 0.76 ± 0.03 s⁻¹.

**Q.** What about the “time to complete cleavage by rocR” value (rocR) of the same molecule?
**A.** The value was about 3 min.

**Q.** What about the k2 (rocR) of the same molecule?
**A.** The k2 was 1.15 ± 0.21 s⁻¹.

**Q.** What about the k3 (rocR) of the same molecule?
**A.** Its k3 is 0.76 ± 0.03 s⁻¹.

**Q.** What about the k1 (rocR) of the same molecule?
**A.** Its k1 is 3.96e+06 ± 70000 M⁻¹ s⁻¹.

**Q.** And the “order of gradually reduced rocR hydrolysis rate” value (rocR)?
**A.** Its value is “c-di-GMP, c-di-^tzGMP, c-G^tzGMP, c-G^thGMP and lastly c-di-^thGMP”.

**Q.** Which results are given for `Nc1nc2c([C@@H]3O[C@@H]4COP(=O)(O)O[C@H]5[C@@H](O)[C@H](c6snc7c(=O)[nH]c(N)nc67)O[C@@H]5COP(=O)(O)O[C@H]4[C@H]3O)snc2c(=O)[nH]1` [c-di-^tzGMP]?
**A.** IFN-β mRNA production / IFN response (STING pathway): earlier and stronger maximum IFN-β response compared to the native c-di-GMP; time post transfection of highest IFN-β mRNA production (STING pathway): 2 h; order of IFN-β induction (STING pathway): c-GthGMP>c-di-tzGMP>c-GtzGMP>c-di-GMP>c-di-thGMP; k2 (cleavage reaction) (rocR): 0.83 ± 0.55 s⁻¹; time to complete cleavage by rocR (rocR): ≤ 20 min; k2 (rocR): 0.099 ± 0.07 s⁻¹; k3 (rocR): 0.83 ± 0.55 s⁻¹; k1 (rocR): 43000 ± 20000 M⁻¹ s⁻¹; order of gradually reduced rocR hydrolysis rate (rocR): c-di-GMP, c-di-^tzGMP, c-G^tzGMP, c-G^thGMP and lastly c-di-^thGMP; kapp (apparent kinetics rate constant) (DncV): 1.57 ± 0.15 M⁻¹ s⁻¹

**Q.** `Nc1nc2c([C@@H]3O[C@@H]4COP(=O)(O)O[C@H]5[C@@H](O)[C@H](n6cnc7c(=O)[nH]c(N)nc76)O[C@@H]5COP(=O)(O)O[C@H]4[C@H]3O)scc2c(=O)[nH]1` [c-G^thGMP] was tested. Which “IFN-β mRNA production relative to c-di-GMP” value (STING pathway; RAW 264.7, 5 μM CDN, 2 h incubation) did it give?
**A.** Its value is “tenfold higher”.

**Q.** What about the “IFN-β mRNA production / IFN response” value (STING pathway) of the same molecule?
**A.** The value was “highest potency; also recorded: earlier and stronger maximum IFN-β response compared to the native c-di-GMP; also recorded: strongest effect on IFN-β induction of all analogues tested; also recorded: faster and greater innate immune response relative to the native signal c-di-GMP”.

**Q.** What about the “time post transfection of highest IFN-β mRNA production” value (STING pathway) of the same molecule?
**A.** Its value is 2 h.

**Q.** And the “order of IFN-β induction” value (STING pathway)?
**A.** The value was “c-GthGMP>c-di-tzGMP>c-GtzGMP>c-di-GMP>c-di-thGMP”.

**Q.** What about the k2 (rocR) of the same molecule?
**A.** The k2 was 0.033 ± 0.001 s⁻¹.

**Q.** And the k3 (rocR)?
**A.** Its k3 is 5 ± 0.57 s⁻¹.

**Q.** And the k1 (rocR)?
**A.** The k1 was 21000 ± 1000 M⁻¹ s⁻¹.

**Q.** What about the “order of gradually reduced rocR hydrolysis rate” value (rocR) of the same molecule?
**A.** Its value is “c-di-GMP, c-di-^tzGMP, c-G^tzGMP, c-G^thGMP and lastly c-di-^thGMP”.

**Q.** And the “products of rocR-mediated cleavage” value (rocR; mixed CDNs, HPLC)?
**A.** Its value is “a single product”.

Reference: US11702442B2, “Cyclic dinucleotide compounds as sting agonists” (The Regents of the University of California, priority 2019, dated 2023)
